These are literature values, as cited in paper PMC6698139 (Bioorganic & medicinal chemistry, 2019).

The series deals with S1PR2. As to conditions: [33P]S1P competitive binding assay.

For `Cc1cc(C(=O)Cn2cc(C#N)ccc2=O)c(C)n1Cc1ccccc1` [CYM-5520], the “competition with S1P” value was “not competitive”.
